Experimental data: ChEMBL document CHEMBL5620430, “Design, synthesis and biological evaluation of indazole derivatives as selective covalent inhibitors of FGFR4 in wild-type and gatekeeper mutants” (Eur J Med Chem, 2023)
The source made the active and inactive calls. The calls are words filed in the database; no cut-off is given here.

What was measured:
[1] = Half life in Sprague-Dawley rat at 10 mg/kg, po by LC-MS/MS analysis; type: ADME, organism-based; settings: in vivo
[2] = target: Fibroblast growth factor receptor 3 (Homo sapiens, UniProt P22607)
Description: Inhibition of FGFR3 (unknown origin)

Huh-7 [3] = assay: Induction of apoptosis in human Huh-7 cells assessed as late apoptotic cells at 1 uM measured after 48 hrs by AnnexinV-FITC/PI staining based flow cytometry (reference value: 2.55%); type: functional
[4] = Toxicity in NSG mouse assessed as effect on CHO level at 20 to 40 mg/kg […]; type: organism-based; settings: in vivo, dose 20-40 mg/kg
[5] = target: Fibroblast growth factor receptor 2 (Homo sapiens, UniProt P21802)
Description: Inhibition of FGFR2 (unknown origin)

Huh-7 [6] = assay: Antitumor activity against human Huh-7 cells xenografted in ip dosed NSG mouse assessed as decrease in Ki-67 expression administered twice per day for 2 weeks; type: functional, organism-based; settings: dose 20-40 mg/kg
Huh-7 [7] = assay: Inhibition of colony formation in human Huh-7 cells assessed as reduction in number of colonies at 10 to 270 nM measured for 12 days; type: functional, cell-based; settings: dose 10-270 nM, time 12.0 day
[8] = target: T1, Fibroblast growth factor receptor 4 (Homo sapiens, UniProt P22455); assay: Inhibition of FGFR4 in human Huh-7 cells assessed as inhibition of ERK1/2 phosphorylation incubated for 2 hrs followed by compound washout and measured upto 8 hrs by Western blot analysis; type: cell-based
Target sequence in this assay (P22455 22-802 limits assumed): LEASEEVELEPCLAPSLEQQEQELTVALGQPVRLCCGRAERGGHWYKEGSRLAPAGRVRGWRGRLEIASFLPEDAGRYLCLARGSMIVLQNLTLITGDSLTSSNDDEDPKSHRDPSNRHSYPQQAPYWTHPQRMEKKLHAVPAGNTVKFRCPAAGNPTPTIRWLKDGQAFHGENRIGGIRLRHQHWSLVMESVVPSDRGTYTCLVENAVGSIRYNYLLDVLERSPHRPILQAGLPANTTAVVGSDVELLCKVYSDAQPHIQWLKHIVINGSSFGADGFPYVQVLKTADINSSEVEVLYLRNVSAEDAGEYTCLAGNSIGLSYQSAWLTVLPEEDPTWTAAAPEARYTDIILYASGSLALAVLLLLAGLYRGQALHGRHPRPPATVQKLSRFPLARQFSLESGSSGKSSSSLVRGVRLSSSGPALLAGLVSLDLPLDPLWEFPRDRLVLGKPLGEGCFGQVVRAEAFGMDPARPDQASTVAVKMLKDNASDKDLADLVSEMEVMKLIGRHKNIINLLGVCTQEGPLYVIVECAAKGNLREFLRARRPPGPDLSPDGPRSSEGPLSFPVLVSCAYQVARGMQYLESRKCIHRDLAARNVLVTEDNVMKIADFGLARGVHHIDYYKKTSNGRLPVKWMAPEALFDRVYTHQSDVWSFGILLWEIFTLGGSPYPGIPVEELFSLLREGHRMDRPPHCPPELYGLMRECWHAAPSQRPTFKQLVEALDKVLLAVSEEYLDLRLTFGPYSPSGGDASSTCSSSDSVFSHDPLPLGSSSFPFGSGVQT

[9] = Half life in Sprague-Dawley rat at 2 mg/kg, iv by LC-MS/MS analysis; type: ADME, organism-based; settings: in vivo
[10] = Toxicity in NSG mouse assessed as effect on AST level at 20 to 40 mg/kg […]; type: organism-based; settings: in vivo, dose 20-40 mg/kg
[11] = target: Fibroblast growth factor receptor 1 (Homo sapiens, UniProt P11362)
Description: Inhibition of FGFR1 (unknown origin)

[12] = MRT (0 to t) in Sprague-Dawley rat at 10 mg/kg, po by LC-MS/MS analysis; type: ADME, organism-based; settings: in vivo
BaF3 [13] = assay: cells; settings: Mus musculus
Description: Antiproliferative activity against mouse BaF3 cells harbouring ETV6-FGFR4-N535K mutant measured after 24 to 48 hrs by MTT assay

[14] = target: T1, Fibroblast growth factor receptor 4; assay: Inhibition of FGFR4 phosphorylation in human Huh-7 cells at 120 nM by Western blot analysis; type: cell-based
Target sequence in this assay (P22455 22-802 limits assumed): as above

[15] = Toxicity in NSG mouse assessed as effect on kidney at 20 to 40 mg/kg by H and E staining based analysis; type: organism-based; settings: in vivo, dose 20-40 mg/kg
[16] = Observed clearance in Sprague-Dawley rat at 2 mg/kg, iv by LC-MS/MS analysis; type: ADME, organism-based; settings: in vivo
[17] = target: T1, Fibroblast growth factor receptor 4; assay: Inhibition of FGFR4 in human Huh-7 cells assessed as inhibition of ERK1/2 phosphorylation at 0.5 uM by Western blot analysis; type: cell-based; settings: time <= 24.0 hrs, TDE = time-dependent effect
Target sequence in this assay (P22455 22-802 limits assumed): as above

Huh-7 [18] = assay: Antitumor activity against human Huh-7 cells xenografted in ip dosed NSG mouse assessed as decrease in tumor weight administered twice per day for 2 weeks; type: functional, organism-based; settings: dose 20-40 mg/kg
BaF3 [19] = assay: cells; settings: Mus musculus; remark: listed apart in the source
Description: Antiproliferative activity against mouse BaF3 cells harbouring ETV6-FGFR4-V550L mutant measured after 24 to 48 hrs by MTT assay

[20] = Toxicity in NSG mouse assessed as effect on TP level at 20 to 40 mg/kg […]; type: organism-based; settings: in vivo, dose 20-40 mg/kg
[21] = Toxicity in NSG mouse assessed as effect on ALB level at 20 to 40 mg/kg […]; type: organism-based; settings: in vivo, dose 20-40 mg/kg
HepG2 = assay: Antiproliferative activity against human HepG2 cells measured after 24 to 48 hrs by MTT assay; type: functional, cell-based
[22] = Toxicity in NSG mouse assessed as effect on HDL-C level at 20 to 40 mg/kg […]; type: organism-based; settings: in vivo, dose 20-40 mg/kg
Hep 3B2 = assay: Antiproliferative activity against human Hep3B cells measured after 24 to 48 hrs by MTT assay; type: functional, cell-based
[23] = Toxicity in NSG mouse assessed as effect on UREA level at 20 to 40 mg/kg […]; type: organism-based; settings: in vivo, dose 20-40 mg/kg
[24] = Toxicity in NSG mouse assessed as lethality at 20 to 40 mg/kg […]; type: organism-based; settings: in vivo, dose 20-40 mg/kg
[25] = Metabolic stability in liver microsomes (unknown origin) assessed as half life; type: ADME, Microsome
Huh-7 [26] = assay: Antitumor activity against human Huh-7 cells xenografted in NSG mouse assessed as suppression of tumor growth at 40 mg/kg, ip administered twice per day for 2 weeks relative to control; type: functional
Huh-7 [27] = assay: Induction of apoptosis in human Huh-7 cells assessed as late apoptotic cells at 2 uM measured after 48 hrs by AnnexinV-FITC/PI staining based flow cytometry (reference value: 2.55%); type: functional
[28] = Toxicity in NSG mouse assessed as effect on LDH level at 20 to 40 mg/kg […]; type: organism-based; settings: in vivo, dose 20-40 mg/kg
[29] = target: T1, Fibroblast growth factor receptor 4; assay: Inhibition of FGFR4 in human Huh-7 cells assessed as inhibition of ERK1/2 phosphorylation measured after 2 hrs by Western blot analysis; type: cell-based
Target sequence in this assay (P22455 22-802 limits assumed): as above

[30] = Toxicity in NSG mouse assessed as effect on body weight at 20 to 40 mg/kg […]; type: organism-based; settings: in vivo, dose 20-40 mg/kg
[31] = AUC (0 to t) in Sprague-Dawley rat at 2 mg/kg, iv by LC-MS/MS analysis; type: ADME, organism-based; settings: in vivo
[32] = target: T1, Fibroblast growth factor receptor 4
Target sequence in this assay (P22455 whole entry): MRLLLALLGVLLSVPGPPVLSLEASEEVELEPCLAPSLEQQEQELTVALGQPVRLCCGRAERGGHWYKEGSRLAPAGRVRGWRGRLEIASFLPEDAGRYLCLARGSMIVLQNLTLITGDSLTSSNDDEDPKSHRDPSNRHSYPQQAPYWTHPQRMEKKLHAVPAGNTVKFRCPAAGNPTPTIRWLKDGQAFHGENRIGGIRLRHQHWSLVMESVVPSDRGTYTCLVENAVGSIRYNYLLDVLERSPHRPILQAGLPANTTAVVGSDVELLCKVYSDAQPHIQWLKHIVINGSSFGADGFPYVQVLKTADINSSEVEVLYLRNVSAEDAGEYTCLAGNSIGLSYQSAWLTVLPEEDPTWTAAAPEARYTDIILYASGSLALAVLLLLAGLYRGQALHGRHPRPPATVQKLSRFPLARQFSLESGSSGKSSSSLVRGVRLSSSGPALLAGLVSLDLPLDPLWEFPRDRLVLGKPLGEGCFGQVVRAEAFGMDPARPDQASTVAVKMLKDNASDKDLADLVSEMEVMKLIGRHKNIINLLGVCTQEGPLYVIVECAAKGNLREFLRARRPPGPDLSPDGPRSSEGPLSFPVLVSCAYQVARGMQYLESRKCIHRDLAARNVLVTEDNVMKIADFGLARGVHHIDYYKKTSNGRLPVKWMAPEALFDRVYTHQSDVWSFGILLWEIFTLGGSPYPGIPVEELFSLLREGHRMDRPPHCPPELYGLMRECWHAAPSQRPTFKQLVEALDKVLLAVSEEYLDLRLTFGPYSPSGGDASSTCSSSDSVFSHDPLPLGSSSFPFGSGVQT
Description: Inhibition of FGFR4 (445 to 753 residues) (unknown origin) expressed in Escherichia coli

Huh-7 [33] = assay: Antitumor activity against human Huh-7 cells xenografted in ip dosed NSG mouse assessed as decrease in FGFR4 phosphorylation level administered twice per day for 2 weeks; type: functional, organism-based; settings: dose 20-40 mg/kg
[34] = AUC (0 to t) in Sprague-Dawley rat at 10 mg/kg, po by LC-MS/MS analysis; type: ADME, organism-based; settings: in vivo
[35] = Toxicity in NSG mouse assessed as effect on UA level at 20 to 40 mg/kg […]; type: organism-based; settings: in vivo, dose 20-40 mg/kg
Huh-7 [36] = assay: Antitumor activity against human Huh-7 cells xenografted in ip dosed NSG mouse assessed as suppression of tumor growth administered twice per day for 2 weeks; type: functional, organism-based; settings: dose 20-40 mg/kg
[37] = Cmax in Sprague-Dawley rat at 10 mg/kg, po by LC-MS/MS analysis; type: ADME, organism-based; settings: in vivo
[38] = target: T1, Fibroblast growth factor receptor 4; assay: Inhibition of FGFR4 in human Huh-7 cells assessed as inhibition of MEK phosphorylation at 0.5 uM by Western blot analysis; type: cell-based; settings: time <= 24.0 hrs, TDE = time-dependent effect
Target sequence in this assay (P22455 22-802 limits assumed): as the sequence (P22455 22-802 limits assumed) above

[39] = Toxicity in NSG mouse assessed as effect on spleen at 20 to 40 mg/kg by H and E staining based analysis; type: organism-based; settings: in vivo, dose 20-40 mg/kg
[40] = target: T1, Fibroblast growth factor receptor 4; assay: Inhibition of FGFR4 in human Huh-7 cells assessed as inhibition of MEK phosphorylation incubated for 2 hrs followed by compound washout and measured upto 8 hrs by Western blot analysis; type: cell-based
Target sequence in this assay (P22455 22-802 limits assumed): as above

Huh-7 [41] = assay: Antitumor activity against human Huh-7 cells xenografted in NSG mouse assessed as suppression of tumor growth at 20 mg/kg, ip administered twice per day for 2 weeks relative to control; type: functional
[42] = Cmax in Sprague-Dawley rat at 2 mg/kg, iv by LC-MS/MS analysis; type: ADME, organism-based; settings: in vivo

Sequence of Fibroblast growth factor receptor 3 (P22607 whole entry): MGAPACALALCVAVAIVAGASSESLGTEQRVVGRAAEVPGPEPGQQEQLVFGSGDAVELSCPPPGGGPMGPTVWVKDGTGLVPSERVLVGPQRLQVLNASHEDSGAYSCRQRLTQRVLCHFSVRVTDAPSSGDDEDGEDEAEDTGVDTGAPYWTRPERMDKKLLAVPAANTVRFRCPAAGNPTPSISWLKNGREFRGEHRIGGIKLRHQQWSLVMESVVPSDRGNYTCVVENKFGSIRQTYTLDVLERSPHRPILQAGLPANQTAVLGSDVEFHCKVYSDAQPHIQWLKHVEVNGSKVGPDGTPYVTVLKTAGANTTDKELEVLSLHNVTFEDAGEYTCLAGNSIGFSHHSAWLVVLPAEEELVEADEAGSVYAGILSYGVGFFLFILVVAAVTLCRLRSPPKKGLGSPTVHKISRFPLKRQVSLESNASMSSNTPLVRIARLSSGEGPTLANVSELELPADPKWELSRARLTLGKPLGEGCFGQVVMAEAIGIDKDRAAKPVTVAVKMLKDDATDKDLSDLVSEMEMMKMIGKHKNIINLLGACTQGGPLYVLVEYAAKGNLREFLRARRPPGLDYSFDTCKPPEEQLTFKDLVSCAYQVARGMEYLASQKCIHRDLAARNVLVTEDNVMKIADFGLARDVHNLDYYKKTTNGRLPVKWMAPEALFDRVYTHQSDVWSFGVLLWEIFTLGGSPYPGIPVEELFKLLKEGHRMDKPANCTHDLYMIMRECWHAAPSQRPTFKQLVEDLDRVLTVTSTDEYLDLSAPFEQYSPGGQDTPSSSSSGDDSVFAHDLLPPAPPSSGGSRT
Sequence of Fibroblast growth factor receptor 2 (P21802 whole entry): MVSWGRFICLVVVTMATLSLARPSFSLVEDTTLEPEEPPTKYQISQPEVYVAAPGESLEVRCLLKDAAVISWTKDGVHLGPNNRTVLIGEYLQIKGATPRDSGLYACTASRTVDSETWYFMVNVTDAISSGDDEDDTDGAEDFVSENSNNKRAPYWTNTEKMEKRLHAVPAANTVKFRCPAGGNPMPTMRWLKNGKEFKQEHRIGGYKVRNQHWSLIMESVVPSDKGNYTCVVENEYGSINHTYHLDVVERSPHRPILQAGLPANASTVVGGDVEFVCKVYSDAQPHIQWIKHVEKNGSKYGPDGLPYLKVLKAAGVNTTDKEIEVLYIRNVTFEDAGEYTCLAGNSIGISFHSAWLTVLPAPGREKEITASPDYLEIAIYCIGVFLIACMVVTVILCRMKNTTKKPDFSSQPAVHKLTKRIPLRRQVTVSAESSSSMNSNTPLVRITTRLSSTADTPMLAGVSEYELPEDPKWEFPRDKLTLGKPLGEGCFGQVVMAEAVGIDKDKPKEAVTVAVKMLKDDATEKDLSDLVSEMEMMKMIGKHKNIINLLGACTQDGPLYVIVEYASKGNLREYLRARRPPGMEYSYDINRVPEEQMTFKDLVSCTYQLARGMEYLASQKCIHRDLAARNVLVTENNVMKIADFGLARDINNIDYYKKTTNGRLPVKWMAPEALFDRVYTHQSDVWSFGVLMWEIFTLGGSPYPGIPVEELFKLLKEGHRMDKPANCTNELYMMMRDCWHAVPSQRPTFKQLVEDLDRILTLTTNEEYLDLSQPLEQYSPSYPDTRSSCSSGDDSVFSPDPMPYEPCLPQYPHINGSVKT
Sequence of Fibroblast growth factor receptor 1 (P11362 whole entry): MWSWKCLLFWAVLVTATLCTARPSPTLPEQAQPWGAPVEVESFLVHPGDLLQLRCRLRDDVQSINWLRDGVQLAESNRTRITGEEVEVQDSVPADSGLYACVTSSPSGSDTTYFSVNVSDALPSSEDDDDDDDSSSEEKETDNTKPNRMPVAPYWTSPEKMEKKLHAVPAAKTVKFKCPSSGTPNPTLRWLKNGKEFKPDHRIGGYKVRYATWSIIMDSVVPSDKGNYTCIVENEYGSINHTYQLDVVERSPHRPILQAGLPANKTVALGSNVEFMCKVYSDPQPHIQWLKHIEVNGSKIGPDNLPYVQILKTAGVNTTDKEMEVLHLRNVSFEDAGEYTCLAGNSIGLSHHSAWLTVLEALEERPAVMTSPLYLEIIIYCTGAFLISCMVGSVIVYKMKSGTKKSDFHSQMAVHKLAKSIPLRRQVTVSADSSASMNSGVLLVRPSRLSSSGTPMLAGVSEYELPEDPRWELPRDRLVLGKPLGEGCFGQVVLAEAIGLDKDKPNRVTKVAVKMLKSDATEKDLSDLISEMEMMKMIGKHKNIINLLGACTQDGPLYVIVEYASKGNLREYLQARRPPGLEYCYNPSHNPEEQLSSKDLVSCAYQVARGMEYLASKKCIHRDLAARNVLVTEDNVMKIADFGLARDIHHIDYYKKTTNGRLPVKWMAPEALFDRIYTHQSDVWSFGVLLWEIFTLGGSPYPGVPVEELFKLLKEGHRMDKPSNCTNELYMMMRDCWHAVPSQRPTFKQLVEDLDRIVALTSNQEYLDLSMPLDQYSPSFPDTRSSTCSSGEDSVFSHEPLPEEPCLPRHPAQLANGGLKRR

Structure (SMILES): C=CC(=O)Nc1cc2c(cc1-c1n[nH]c3ccc(O[C@H](C)c4c(Cl)cncc4Cl)cc13)CCN(C)C2
- half-life [1]: 2.59 h
- IC50 [2]: > 3000 µM
- Activity (Huh-7 [3]): 7.46%
- Activity [4]: Non-Toxic
- IC50 [5]: > 3000 µM
- Activity (Huh-7 [6]): Dose-Dependent Effect
- inhibition (Huh-7 [7]): Active
- inhibition [8]: Active
- half-life [9]: 7 h
- Activity [10]: Non-Toxic
- IC50 [11]: > 3 µM
- MRT last [12]: 3.04 h
- IC50 (BaF3 [13]): 0.172 µM
- inhibition [14]: Active
- Activity [15]: Non-Toxic
- clearance [16]: 10.5 L/h/kg
- inhibition [17]: Tde
- Activity (Huh-7 [18]): Dose-Dependent Effect
- IC50 (BaF3 [19]): 0.002 µM
- Activity [20]: Non-Toxic
- Activity [21]: Non-Toxic
- IC50 (HepG2): > 5 µM
- Activity [22]: Non-Toxic
- IC50 (Hep 3B2): 0.038 µM
- Activity [23]: Non-Toxic
- Activity [24]: Non-Toxic
- half-life [25]: 8.99 min
- Activity (Huh-7 [26]): 83%
- Activity (Huh-7 [27]): 11.39%
- Activity [28]: Non-Toxic
- inhibition [29]: Dose-Dependent Effect
- Activity [30]: Non-Toxic
- AUC(0-t) [31]: 0.192 µg·h/mL
- IC50 [32]: 0.0024 µM
- Activity (Huh-7 [33]): Dose-Dependent Effect
- AUC(0-t) [34]: 0.013 µg·h/mL
- Activity [35]: Non-Toxic
- Activity (Huh-7 [36]): Dose-Dependent Effect
- Cmax [37]: 0.00491 µg/mL
- inhibition [38]: Tde
- Activity [39]: Non-Toxic
- inhibition [40]: Active
- Activity (Huh-7 [41]): 60.2%
- Cmax [42]: 0.214 µg/mL
